The source of these data is ChEMBL document CHEMBL1123818, “Synthesis and biological activity of 5-(2,2-difluorovinyl)-2'-deoxyuridine” (1987).

SMILES strings stand for the structures. Converted amounts (≈) assume the structure as drawn.

Assay [1] relates to FM3A. In words: Compound was tested for antitumor activity against FM3A/0 mammary carcinoma cells. Conditions: Mus musculus. The format is functional.
The subject of assay [2] is FM3A. Nature of the assay: Compound was tested for antitumor activity against FM3A/TK- cells. The assay is classed as functional. The note with it: Mus musculus.
The test system of assay [3] is Human alphaherpesvirus 1. In words: (§1) Compound was tested for antiviral activity against herpes simplex virus (thymidine kinase deficient herpes simplex virus ( HSV-1 (B2006) in primary rabbit kidney cells. The assay is classed as functional, Oryctolagus cuniculus.
Assay [4] is described as follows: Compound was tested for antiviral activity against herpes simplex virus( HSV-1-F) strain in primary rabbit kidney cells. The assay is classed as functional. The note with it: Oryctolagus cuniculus.
Assay [5] can be described thus: Compound was tested for antiviral activity against herpes simplex virus( HSV-1-McIntyre) strain in primary rabbit kidney cells. The format is functional. Conditions: Oryctolagus cuniculus.
Assay [6] in a line: Compound was tested for antiviral activity against herpes simplex virus( HSV-2-196 strain in primary rabbit kidney cells. The assay is classed as functional. The note with it: Oryctolagus cuniculus.
Assay [7] in a line: Compound was tested for antiviral activity against herpes simplex virus( HSV-2-G) strain in primary rabbit kidney cells. The format is functional. The note with it: Oryctolagus cuniculus.
Assay [8] is described as follows: Compound was tested for antiviral activity against herpes simplex virus( HSV-2-lyons) strain in primary rabbit kidney cells. The assay is classed as functional. The note with it: Oryctolagus cuniculus.
Assay [9] in a line: Compound was tested for antitumor activity against HSV-1 TK gene transformed TK deficient FM3A cells. Conditions: Mus musculus. The assay is classed as functional.
The subject of the next assay is MOLT-4F. Nature of the assay: Compound was tested for antitumor activity against human T-lymphoblast Molt/4F cells. The assay is classed as functional.
The species named for a further assay is Oryctolagus cuniculus. In words: Compound was tested for antiviral activity against Vaccinia virus in primary rabbit kidney cells. The assay is classed as functional.
Assay [10] relates to Raji. In words: Compound was tested for antitumor activity against human B-lymphoblast Raji/0 cells. The assay is classed as functional.
Assay [11] is described as follows: Compound was tested for antiviral activity against […] Vassicular stomatitis in primary rabbit kidney cells. The format is functional. Conditions: Oryctolagus cuniculus.
Assay [12] concerns Raji. In words: Compound was tested for antitumor activity against thymidine kinase deficient human B-lymphoblast […] cells. The assay is classed as functional.
A short description of assay [13]: Compound was tested for antiviral activity against herpes simplex virus( HSV-1-KOS) strain in primary rabbit kidney cells. Conditions: Oryctolagus cuniculus. The format is functional.
The subject of a further assay is L1210. Nature of the assay: Compound was tested for antitumor activity against L1210 cells. Conditions: Mus musculus. The format is functional.
Assay [14] has as its system Human alphaherpesvirus 1. The assay is described as §1. The format is functional.
Assay [15] has as its system Human alphaherpesvirus 1. In words: Compound was tested for antiviral activity against herpes simplex virus (thymidine kinase deficient herpes simplex virus( HSV-1 (B2006) in primary rabbit kidney cells. The format is functional, Oryctolagus cuniculus.
Assay [16] can be described thus: Compound was tested for antiviral activity against herpes simplex virus (HSV-1-McIntyre) strain in primary rabbit kidney cells. The assay is classed as functional. The note with it: Oryctolagus cuniculus.

On to `O=c1[nH]c(=O)n([C@H]2C[C@H](O)[C@@H](CO)O2)cc1C=C(F)F`, for which the MIC50 was 55 µg/mL (≈ 190 µM) with FM3A [1]; more than 100 µg/mL with FM3A [2]; more than 200 µg/mL in the assay on Human alphaherpesvirus 1 [3]; 0.3 µg/mL (≈ 1.03 µM) in assay [4]; 0.3 µg/mL (≈ 1.03 µM) in [5]; 10 µg/mL (≈ 34.5 µM) in [6]. Moreover, the MIC50 was found to be 6 µg/mL (≈ 20.7 µM) in [7]; 3 µg/mL (≈ 10.3 µM) in [8]; 0.25 µg/mL (≈ 0.861 µM) in assay [9]; 42 µg/mL (≈ 145 µM) in the assay with MOLT-4F; 15 µg/mL (≈ 51.7 µM) in the assay listed under Oryctolagus cuniculus; 33 µg/mL (≈ 114 µM) with Raji [10]. Further, the MIC50 in [11] was more than 200 µg/mL; against Raji [12] it was more than 100 µg/mL; in assay [13], 0.2 µg/mL (≈ 0.689 µM); in the assay with L1210, 30 µg/mL (≈ 103 µM).
Take `O=c1[nH]c(=O)n([C@@H]2C[C@H](O)[C@@H](CO)O2)cc1C=C(F)F`: the MIC50 in the assay on FM3A [1] was more than 100 µg/mL; with FM3A [2], more than 100 µg/mL; in assay [4], 20 µg/mL (≈ 68.9 µM); in the assay with Human alphaherpesvirus 1 [14], more than 200 µg/mL; in assay [5] it was 20 µg/mL (≈ 68.9 µM); in assay [6] it was 100 µg/mL (≈ 345 µM). For the same molecule, the MIC50 was 150 µg/mL (≈ 517 µM) in assay [7]; 70 µg/mL (≈ 241 µM) in assay [8]; more than 100 µg/mL in assay [9]; more than 100 µg/mL in the assay on MOLT-4F; more than 100 µg/mL against Raji [10]; more than 200 µg/mL in [11]. Further, the figures for the MIC50 (against Raji [12]; in assay [13]; with L1210) were more than 100 µg/mL, 20 µg/mL (≈ 68.9 µM) and more than 100 µg/mL, respectively.
For `O=c1[nH]c(=O)n([C@H]2C[C@H](O)[C@@H](CO)O2)cc1/C=C/Br` [BRIVUDINE], the MIC50 in the assay on FM3A [1] is 13 µg/mL (≈ 39 µM); against FM3A [2], 0.4 µg/mL (≈ 1.2 µM); in the assay on Human alphaherpesvirus 1 [3], more than 200 µg/mL; in assay [4], 0.02 µg/mL (≈ 0.06 µM); in assay [5] it was 0.02 µg/mL (≈ 0.06 µM); in assay [6], 7 µg/mL (≈ 21 µM). In addition, the MIC50 in assay [7] is 2 µg/mL (≈ 6 µM); in [8], 7 µg/mL (≈ 21 µM); in [9], 0.0004 µg/mL (≈ 0.0012 µM); in the assay with MOLT-4F, more than 100 µg/mL; in the assay listed under Oryctolagus cuniculus it was 20 µg/mL (≈ 60 µM); against Raji [10], 29 µg/mL (≈ 87.1 µM). Moreover, the MIC50 in [11] was more than 200 µg/mL; in the assay on Raji [12], 78 µg/mL (≈ 234 µM); in assay [13] it was 0.02 µg/mL (≈ 0.06 µM); in the assay with L1210 it was 31 µg/mL (≈ 93.1 µM).
Take `O=c1[nH]c(=O)n([C@H]2C[C@H](O)[C@@H](CO)O2)cc1C=C(Br)Br`: the MIC50 in the assay with FM3A [1] was more than 100 µg/mL; with FM3A [2], more than 100 µg/mL; in the assay with Human alphaherpesvirus 1 [3], more than 150 µg/mL; in assay [4] it was 70 µg/mL (≈ 170 µM); in assay [5], 20 µg/mL (≈ 48.5 µM); in assay [6], 150 µg/mL (≈ 364 µM). For the same molecule, the MIC50 in assay [7] is 200 µg/mL (≈ 485 µM); in [8], 200 µg/mL (≈ 485 µM); in assay [9] it was 7 µg/mL (≈ 17 µM); against MOLT-4F, more than 100 µg/mL; in the assay filed under Oryctolagus cuniculus, 100 µg/mL (≈ 243 µM); with Raji [10], more than 100 µg/mL. The MIC50 was more than 400 µg/mL in assay [11], more than 100 µg/mL in the assay on Raji [12], 20 µg/mL (≈ 48.5 µM) in assay [13] and more than 100 µg/mL in the assay with L1210.
Regarding `O=c1[nH]c(=O)n([C@H]2C[C@H](O)[C@@H](CO)O2)cc1I` [IDOXURIDINE], the MIC50 in the assay on Human alphaherpesvirus 1 [3] was more than 200 µg/mL; in assay [4], 0.2 µg/mL (≈ 0.565 µM); in assay [5], 0.3 µg/mL (≈ 0.847 µM); in assay [6], 3 µg/mL (≈ 8.47 µM); in assay [7], 1.5 µg/mL (≈ 4.24 µM); in assay [8], 1.5 µg/mL (≈ 4.24 µM). The MIC50 is 0.5 µg/mL (≈ 1.41 µM) in the assay listed under Oryctolagus cuniculus, more than 200 µg/mL in assay [11] and 0.15 µg/mL (≈ 0.424 µM) in [13].
For `Oc1ncc(C=C(F)F)c(O)n1`, the MIC50 against FM3A [1] was more than 100 µg/mL; with FM3A [2], more than 100 µg/mL; in the assay with Human alphaherpesvirus 1 [15] it was more than 200 µg/mL; in assay [4], more than 200 µg/mL; in assay [16], more than 200 µg/mL; in assay [6], more than 200 µg/mL. Moreover, the MIC50 in assay [7] was more than 200 µg/mL; in assay [8] it was more than 200 µg/mL; in [9], more than 100 µg/mL; against MOLT-4F it was more than 100 µg/mL; in the assay listed under Oryctolagus cuniculus, more than 200 µg/mL; with Raji [10] it was more than 100 µg/mL. In addition, the MIC50 in [11] is more than 200 µg/mL; in the assay with Raji [12] it was more than 100 µg/mL; in [13] it was more than 200 µg/mL; with L1210, more than 100 µg/mL.
